Laboratory results from patent US20260159481A1, “INDOLE DERIVATIVE WITH SUBSTITUENT AND PHARMACEUTICAL USE” (MITOIMMUNE THERAPEUTICS INC., priority 2023, published 2026).

Columns and labels:
Assay type in all cases: cell-based
cardiac cells (H9C2) [1] = assay: Protective effect against t-BHP-induced cell death in cardiac cells (LDH release); settings: Rattus norvegicus, t-BHP 400 PM, 2 hours, read-out: EC50, protective effect against cell death due to t-BHP induction
Method in brief: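 H9C2 cells were pretreated 15–20 min with compound at final 0.001–30 PM (so in the source), then exposed to t-BHP at final 400 PM for 2 h. LDH released into supernatant was measured colorimetrically at 490 nm after 15 min room-temperature reaction, and EC50 derived.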

cardiac cells (H9C2) [2] = assay: Protective effect against cell death due to RSL3 (LDH release), H9C2; settings: RSL3 0.5 μM, 24 hours
Protocol: (§1) To confirm cell death protection effects on cardiac cells, adrenal medullary cells, renal fibroblasts, retinal epithelial cells, lung epithelial cells, renal proximal tubular epithelial cells, hippocampal neurons and fibroblasts, each type of cells were seeded at 4×10^3 to 1.2×10^4 cells/well in a 96-well plate and cultured for 18 to 24 hours. The example compounds were diluted to have the final concentration of 0.001, 0.003, 0.01, 0.3, 1, 3, and 10 μM, respectively, and then added to different wells and cultured for 15 to 20 minutes. […] To confirm the cell death protection effect of the example compounds, the degree of extracellular secretion of lactate dehydrogenase (LDH) was measured using a cytotoxicity LDH assay kit [Dojindo; CK12]. Briefly, at the end of 24-hour treatment of each type of cells with RSL3, 70 μL of the supernatant was taken from the 96-well plate where the cells were cultured and transferred to a new 96-well plate. The assay buffer included in the kit was added at 70 μL/well (equal to that of the sample) and the plate was covered with foil to block light and allowed to react for 15 to 20 minutes at room temperature. While observing a color change of the sample, 35 µL/well of a stop solution was added, an absorbance at 490 nm was measured using an iD3 spectrophotometer, and an EC50 value was calculated.

[3] = tested on: retinal epithelial cells (ARPE-19); assay: Protective effect against cell death due to RSL3 (LDH release), ARPE-19; settings: RSL3 0.3 μM, 24 hours
Protocol: as §1

[4] = tested on: hippocampal neurons (HT-22); assay: Protective effect against cell death due to RSL3 (LDH release), HT-22; settings: RSL3 0.3 μM, 24 hours
Protocol: as §1

MLE-12 cells [5] = assay: Inhibitory effect on mitochondrial lipid ROS (MitoPerOx) under RSL3; settings: 1 μM RSL3, 2 hours, compound 0.01, 0.1, 1 μM, FIG. 2
Protocol: To confirm the protective effect against mito-lipid ROS in lung epithelial cells, MLE-12 cells were seeded at 2×10^5 cells/well in a 12-well plate and cultured for 18 to 24 hours. Example Compound 29 and Fer-1 were diluted to have the final concentration of 0.01, 0.1, and 1 μM and added to each well, and the cells were cultured for 10 minutes. Afterward, RSL3 was treated to have the final concentration of 1 M, and the cells were cultured for 2 hours. To confirm the inhibitory effect on mito-lipid ROS, the fluorescent mitochondria-targeted lipid peroxidation probe MitoPerOx (abcam; ab146820) was used. According to the manufacturer's protocol, MitoPerOx was diluted in the culture broth to have the final concentration of 1 μM and treated, and fluorescence staining was performed after a 30-minute reaction. The MLE-12 cells that were fluorescence-stained with MitoPerOx were detached from the 12-well plate using 0.25% trypsin-EDTA and transferred to a microtube. Fluorescence (Ex/Em=495 nm/520-590 nm) was measured using BD FACSLyric™, and the relative change compared to the control was calculated.

MLE-12 cells [6] = assay: Inhibitory effect on mito-ROS (MitoSOX) under RSL3; settings: 1 μM RSL3, 2 hours, FIG. 4
Protocol: To confirm the protective effect against mito-ROS in lung epithelial cells, MILE-12 cells were seeded at 2×10^5 cells/well in a 12-well plate and cultured for 18 to 24 hours. Example Compound 29 and Fer-1 were diluted to have the final concentration of 0.01, 0.1, 1 and 10 M and added to each well, and the cells were cultured for 10 minutes. Afterward, RSL3 was treated to have the final concentration of 1 M, and the cells were cultured for 2 hours. To confirm the inhibitory effect on mito-ROS, the mitochondrial superoxide indicator MitoSOX™ (Invitrogen™; C6827) was used. According to the manufacturer's protocol, MitoSOX was diluted in the culture broth to have the final concentration of […], and fluorescence staining was performed after a 30-minute reaction. The MLE-12 cells fluorescence-strained with MitoSOX were detached from the 12-well plate using 0.25% trypsin-EDTA and transferred to a microtube, and fluorescence (Ex/Em=˜396 nm/610 nm) was measured using BD FACSLyric™, and the relative change compared to the control (RSL3-untreated group) was calculated.

Structure (SMILES)	EC50 (cardiac cells (H9C2) [1])	EC50 (cardiac cells (H9C2) [2]; Rattus norvegicus)	EC50 ([3]; Homo sapiens)	EC50 ([4]; Mus musculus)	mito-lipid ROS increased by RSL3 treatment (MLE-12 cells [5])	mito-ROS increased by RSL3 treatment (MLE-12 cells [6])	EC50 (cardiac cells (H9C2) [2])	EC50 [3]	EC50 [4]
OCCOCCOCc1cc(NC2CCOCC2)c2[nH]c(-c3ccccc3)cc2c1 [Example 29, 2-(2-((2-phenyl-7-((tetrahydro-2H-pyran-4-yl)amino)-1H-indol-5-yl)methoxy)ethoxy)ethan-1-ol]	≤ 300 nM	≤ 100 nM	≤ 100 nM	≤ 100 nM	significantly decreased at 1 μM	significantly decreased at 0.01, 0.1, and 1 μM			
CCOC(=O)c1ccc(NC2CCCCC2)c(N)c1 [Fer-1, ferrostatin-1, reference compound]					significantly decreased at 1 μM	significantly decreased at 0.01, 0.1, and 1 μM	≤ 100 nM	≤ 100 nM	100 to 1000 nM
